Measurements taken from patent US20240262801A1, “COMPOUNDS HAVING 5-(2-FLUORO-6-HYDROXYPHENYL)-1,2,5-THIADIAZOLIDIN-3-ONE 1,1-DIOXIDE AS INHIBITORS OF PROTEIN KINASE PHOSPHATASE ENZYMES” (Ness Therapeutics, Inc., priority 2021, published 2024).
Read-outs that look alike come from different tables or passages of the source.

Columns and labels:
[1] = molecular target: T1, GST-tagged PTPN2 protein (Homo sapiens, UniProt P17706); test: Primary assay of PTPN2 enzymatic activity inhibition (DiFMUP fluorescence); assay type: biochemical; details: DiFMUP substrate 2 μM, 60 min at RT
T1 construct: purchased ActiveMotif 31592
T1 sequence (P17706 with tags, fused parts or gaps): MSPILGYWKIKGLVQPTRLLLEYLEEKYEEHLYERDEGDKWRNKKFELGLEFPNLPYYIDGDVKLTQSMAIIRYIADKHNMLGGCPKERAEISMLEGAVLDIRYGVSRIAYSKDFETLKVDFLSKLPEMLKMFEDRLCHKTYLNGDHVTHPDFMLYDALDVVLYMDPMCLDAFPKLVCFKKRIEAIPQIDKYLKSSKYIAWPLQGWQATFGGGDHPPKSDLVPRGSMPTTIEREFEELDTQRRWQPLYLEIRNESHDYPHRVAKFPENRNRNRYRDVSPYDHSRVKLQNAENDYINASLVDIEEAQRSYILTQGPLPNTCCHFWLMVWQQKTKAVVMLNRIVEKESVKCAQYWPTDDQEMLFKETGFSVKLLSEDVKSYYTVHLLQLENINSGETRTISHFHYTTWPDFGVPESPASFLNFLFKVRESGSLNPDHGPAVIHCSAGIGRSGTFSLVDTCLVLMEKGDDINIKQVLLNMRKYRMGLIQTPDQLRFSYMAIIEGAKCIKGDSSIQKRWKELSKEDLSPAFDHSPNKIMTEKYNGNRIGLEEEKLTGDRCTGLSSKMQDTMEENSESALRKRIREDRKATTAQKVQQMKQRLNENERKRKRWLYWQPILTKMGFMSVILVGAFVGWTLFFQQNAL
Description: Compound activity was determined using GST-tagged PTPN2 protein (Cat #31592, ActiveMotif) (SEQ ID NO: 1) in an in vitro enzymatic reaction. The enzymatic reaction was carried out in assay buffer (50 mM HEPES Na salt pH 7.2-7.4, 2 mM EDTA, 100 mM NaCl, 52 ng/μL BSA, and 6 mM DTT). The compounds were dispensed on a 384 well Diamond Well Plate (Axigen, Cat #P-384-120SQ-C-S) using the Biomek FX liquid handling system at 100× solutions of compounds in DMSO. 2× PTPN2 (final concentration 0.004 ng/μL) was prepared in 1× Assay buffer and 25 μL of mixture per well was added into Reaction plate (Optiplate, black, Perkin Elmer, Cat #6007270). Add 25 μL of 1× buffer to Ctrl- (Substrate w/o PTPN2) wells followed by centrifugation at 100 g for 1 min. Next step the Compounds were added to Reaction plate using Biomek station via following steps: 3 ul of 100× compounds (in DMSO) were mixed with 27 μL of Assay Buffer, then 5 μL of this mixture was added to Reaction plate with 25 μL of PTPN2 Mix. Plates were centrifuged for 1 min at 100 g and incubated for another 10 minutes at room temperature. Finally, 20 μL of 2.5× Substrate (DiFUMP, Invitrogen™ Cat #D6567) mix was added into appropriate wells of Reaction plate to the final concentration of 2 μM, plate was centrifuged at 100 g for 1 min followed by incubation at RT for 60 min, and the Fluorescence Intensity was measured using a Microplate Reader (ClarioStar Plus, excitation 360 nm, emission 450 nm). The % inhibition was then used to calculate the IC50 values. The IC50 values are shown in Table A1, wherein “A” corresponds to IC50<5.0 nm, “B” corresponds to 5.0 nm≤IC50<10.0 nm, “C” corresponds to 10.0 nm≤IC50<50.0 nm, “D” corresponds to 50.0 nm≤IC50<100.0 nm, and “E” corresponds to 100.0 nm≤IC50<500.0 nm, and “F” corresponds to 500.0 nm≤IC50.

[2] = system: B16F10 mouse melanoma cells; test: Tumor cells B16F10 cellular growth IFNγ-induced inhibition assay (CellTiter-Glo); assay type: cell-based; details: for IC50: B16-F10, 72 h, 3 days incubation; for inhibition at 100 µM: B16-F10, B16F10, 100 μM compound
Description: B16F10 mouse melanoma cells (ATCC Cat #CRL-6475) were seeded at a density of 500 cells per well in a 384-well clear bottom plate (Corning Cat #3712, Corning, N.Y.) in 40 μL total volume of DMEM+10% FBS (PanEco Cat #C420, Russia and Sigma Cat #F4135, St. Louis, Mo.). Cells were allowed to adhere overnight at 37° C., 5% CO2. On the following day, 250× solutions of compounds in DMSO (Sigma Cat #D2650) were prepared into […] plate (Diamond Well Plate, Axigen, Cat #P-384-120SQ-C-S) (final concentration of 1×) and DMSO only controls were included. Dilution Plate (Diamond Well Plate (Axigen, Cat #P-384-120SQ-C-S) was prepared by adding 49 μL of culture medium per well: half of the plate with culture medium only, half with culture medium+IFNγ (5 ng/ml). A 1 μL aliquot of 250× compounds ([…] plate) was added to 49 μL of culture medium (Dilution plate), then a 10 μL aliqut of the mixture was transferred to Reaction plate with 40 μL of cells followed by centrifugation at 240 g for 1 min. After 3 days of incubation, 10 μL of CellTiter-Glo (Promega) was added to the cells, plates were centrifuged at 240 g for 1 min, and luminescence signal was measured. For each compound, the percent growth inhibition at every compound dose level was calculated relative to the “DMSO/with IFNγ” control and used to determine the IC50.

[3] = B16F10, + IFNγ, read-out: IC50 + IFNγ
[4] = B16F10, no IFNγ, read-out: IC50 no IFNγ
[5] = + IFNγ, read-out: % Growth Inhibition at 100 μM + IFNγ
[6] = no IFNγ, read-out: % Growth Inhibition at 100 μM no IFNγ

| IC50 [1] [µM] | IC50 [2, 3] [µM] | IC50 [2, 4] [µM] | SMILES | inhibition at 100 µM [2, 5] [%] | inhibition at 100 µM [2, 6] [%] | inhibition at 40 µM ([2]; B16-F10, B16F10, 40 μM compound, no IFNγ, read-out: % Growth Inhibition no IFNγ @ 40 μM) [%] |
| --- | --- | --- | --- | --- | --- | --- |
| 0.1 to 0.5 | ≥ 100 | ≥ 100 | O=C1CN(c2c(O)cc(-c3cc(F)cc(F)c3)cc2F)S(=O)(=O)N1 [Example 4, 5-(3,3′,5′-trifluoro-5-hydroxybiphenyl-4-yl)-1,2,5-thiadiazolidin-3-one 1,1-dioxide] | 10 to 50 | 10 to 50 | – |
| < 0.005 | 50 to 100 | ≥ 100 | CC(C)CNC(=O)C12CC(NC(=O)Nc3cc(O)c(N4CC(=O)NS4(=O)=O)c(F)c3)(C1)C2 [Example 112, 3-[[3-fluoro-5-hydroxy-4-(1,1,4-trioxo-1,2,5-thiadiazolidin-2-yl)phenyl]carbamoylamino]-N-isobutyl-bicyclo[1.1.1]pentane-1-carboxamide] | 10 to 50 | 10 to 50 | – |
| 0.01 to 0.05 | 50 to 100 | ≥ 100 | CC(C)(C)OC(=O)N1CC(CNC(=O)Nc2cc(O)c(N3CC(=O)NS3(=O)=O)c(F)c2)C2(CCCCC2)C1 (stereo not drawn) [Example 101, tert-butyl 4-[[[3-fluoro-5-hydroxy-4-(1,1,4-trioxo-1,2,5-thiadiazolidin-2-yl)phenyl]carbamoyl-amino]methyl]-2-azaspiro[4.5]decane-2-carboxylate] | 50 to 75 | 10 to 50 | – |
| 0.1 to 0.5 | ≥ 100 | ≥ 100 | O=C1CN(c2c(O)cc(-c3ccc(F)cc3)cc2F)S(=O)(=O)N1 [Example 8, 5-(3,4′-difluoro-5-hydroxybiphenyl-4-yl)-1,2,5-thiadiazolidin-3-one 1,1-dioxide] | 10 to 50 | 10 to 50 | – |
| 0.1 to 0.5 | ≥ 100 | ≥ 100 | Cc1ccc(-c2cc(C(F)(F)F)nn2-c2ccc(S(=O)(=O)Nc3cc(O)c(N4CC(=O)NS4(=O)=O)c(F)c3)cc2)cc1 [Example 19, N-[4-(1,1-dioxido-4-oxo-1,2,5-thiadiazolidin-2-yl)-3-fluoro-5-hydroxyphenyl]-4-[5-(4-methylphenyl)-3-(trifluoromethyl)-1H-pyrazol-1-yl]benzenesulfonamide] | 10 to 50 | 10 to 50 | – |
| 0.01 to 0.05 | 10 to 50 | ≥ 100 | COc1ccc(S(=O)(=O)Nc2cc(O)c(N3CC(=O)NS3(=O)=O)c(F)c2)cc1 [Example 25, N-[4-(1,1-dioxido-4-oxo-1,2,5-thiadiazolidin-2-yl)-3-fluoro-5-hydroxyphenyl]-4-methoxybenzenesulfonamide] | 50 to 75 | 10 to 50 | – |
| < 0.005 | 5 to 10 | ≥ 100 | O=C1CN(c2c(O)cc(NC(=O)NC3CCCNC3)cc2F)S(=O)(=O)N1 (stereo not drawn) [Example 104, 1-[3-fluoro-5-hydroxy-4-(1,1,4-trioxo-1,2,5-thiadiazolidin-2-yl)phenyl]-3-(3-piperidyl)urea] | 75 to 100 | 10 to 50 | – |
| < 0.005 | 50 to 100 | ≥ 100 | CC(C)(C)OC(=O)N1CCCC(NC(=O)Nc2cc(O)c(N3CC(=O)NS3(=O)=O)c(F)c2)C1 (stereo not drawn) [Example 106, tert-butyl 3-[[3-fluoro-5-hydroxy-4-(1,1,4-trioxo-1,2,5-thiadiazolidin-2-yl)phenyl]carbamoylamino]piperidine-1-carboxylate] | 50 to 75 | 10 to 50 | – |
| 0.005 to 0.01 | ≥ 100 | ≥ 100 | O=C1CN(c2c(O)cc(NC(=O)NC3CCN(S(=O)(=O)Cc4ccccc4Cl)CC3)cc2F)S(=O)(=O)N1 [Example 45, 1-{1-[(2-chlorobenzyl)sulfonyl]piperidin-4-yl}-3-[4-(1,1-dioxido-4-oxo-1,2,5-thiadiazolidin-2-yl)-3-fluoro-5-hydroxyphenyl]urea] | 10 to 50 | 10 to 50 | – |
| < 0.005 | 5 to 10 | ≥ 100 | O=C1CN(c2c(O)cc(NC(=O)NC3CCCCC3O)cc2F)S(=O)(=O)N1 (stereo not drawn) [Example 105, 1-[3-fluoro-5-hydroxy-4-(1,1,4-trioxo-1,2,5-thiadiazolidin-2-yl)phenyl]-3-(2-hydroxycyclohexyl)urea] | 75 to 100 | 10 to 50 | – |
| 0.1 to 0.5 | ≥ 100 | ≥ 100 | COc1ccc(-c2cc(O)c(N3CC(=O)NS3(=O)=O)c(F)c2)cc1 [Example 3, 5-(3-fluoro-5-hydroxy-4′-methoxybiphenyl-4-yl)-1,2,5-thiadiazolidin-3-one 1,1-dioxide] | 10 to 50 | 10 to 50 | – |
| 0.005 to 0.01 | ≥ 100 | ≥ 100 | O=C1CN(c2c(O)cc(NC(=O)Nc3ccccc3C(F)(F)F)cc2F)S(=O)(=O)N1 [Example 55, 1-[4-(1,1-dioxido-4-oxo-1,2,5-thiadiazolidin-2-yl)-3-fluoro-5-hydroxyphenyl]-3-[2-(trifluoromethyl)phenyl]urea] | 10 to 50 | 10 to 50 | – |
| < 0.005 | 10 to 50 | ≥ 100 | O=C1CN(c2c(O)cc(NC(=O)N[C@H](CO)Cc3ccccc3)cc2F)S(=O)(=O)N1 [Example 109, 1-[(1S)-1-benzyl-2-hydroxy-ethyl]-3-[3-fluoro-5-hydroxy-4-(1,1,4-trioxo-1,2,5-thiadiazolidin-2-yl)phenyl]urea] | 50 to 75 | 10 to 50 | – |
| 0.01 to 0.05 | 10 to 50 | ≥ 100 | COc1ccc(S(=O)(=O)Nc2cc(O)c(N3CC(=O)NS3(=O)=O)c(F)c2)cc1OC [Example 26, N-[4-(1,1-dioxido-4-oxo-1,2,5-thiadiazolidin-2-yl)-3-fluoro-5-hydroxyphenyl]-3,4-dimethoxybenzenesulfonamide] | 50 to 75 | 10 to 50 | – |
| 0.01 to 0.05 | 10 to 50 | 10 to 50 | O=C1CN(c2c(O)cc(NS(=O)(=O)c3ccccc3)cc2F)S(=O)(=O)N1 [Example 17, N-[4-(1,1-dioxido-4-oxo-1,2,5-thiadiazolidin-2-yl)-3-fluoro-5-hydroxyphenyl]benzenesulfonamide] | – | – | 10 to 50 |
| 0.005 to 0.01 | < 5 | ≥ 100 | CC(C)CCNC(=O)Nc1cc(O)c(N2CC(=O)NS2(=O)=O)c(F)c1 [Example 62, 1-[4-(1,1-dioxido-4-oxo-1,2,5-thiadiazolidin-2-yl)-3-fluoro-5-hydroxyphenyl]-3-(3-methylbutyl)urea] | 75 to 100 | 10 to 50 | – |
| < 0.005 | < 5 | ≥ 100 | O=C1CN(c2c(O)cc(NC(=O)NC3CCCCC3)cc2F)S(=O)(=O)N1 [Example 56, 1-cyclohexyl-3-[4-(1,1-dioxido-4-oxo-1,2,5-thiadiazolidin-2-yl)-3-fluoro-5-hydroxyphenyl]urea] | 75 to 100 | 10 to 50 | – |
